Laboratory results reported in US7642239B2, “Inhibition of placenta growth factor (PLGF) mediated metastasis and/or angiogenesis” (Center for Molecular Medicine and Immunology, priority 2005, dated 2010).
Marks after values point to notes of the source that are not given here. Ends that are not written are not given here.

Tests used:
[1] = biological target: T1, recombinant human Flt-1 fusion protein (Homo sapiens, UniProt P17948); test: Free peptide binding and competition ELISA, Flt-1-coated wells
T1 construct: purchased R & D Systems
Experimental: (§1) Competition assays were done with 2.5 or 25 U/ml heparin (Sigma, St. Louis, Mo.). BP1, 3, 4, and a scrambled version of BP3 (scrBP3) were synthesized with a linker followed by the FLAG epitope ([…] SEQ ID NO:5) at the C-terminus. Thirty minutes after addition of the first reagent, the second reagent was added, followed by another 30 minute incubation. Peptide binding was assessed by probing for the FLAG epitope (Prickett et al., Biotechniques 7:580-9, 1989; Castrucci et al., J. Virol. 66:4647-53, 1992). Absorbance was read at 490 nm.

MDA-MB-468 [2] = test: Wound-healing (motility) assay, MDA-MB-468; type: cell-based, human; settings: for Relative activity: unit assumed; for Migrating cells: 18-24 h
Experimental: (§2) MCF-7, MDA-MB-23 1, and MDA-MB-468 breast tumor cell lines or HECs were seeded onto sterile glass coverslips in Petri dishes or six-well plates. When the cells were 70-80% confluent, the monolayers were scratched with a sterile plastic pipet tip.
(§3) Inhibitor concentrations were 50 μM PD98059 (PD98) (mitogen activated protein kinase-kinase 1 [MEK1] inhibitor), 5 nM Wortmannin (phosphatidyl inositol 3 kinase [PI3K] inhibitor), or human recombinant soluble Flt-1 (sFlt-1) (R&D Systems). […] Cells were pre-incubated with PD98 and Wortmannin for 15-30 min before addition of PlGF. Stained (Wright-Giemsa) and mounted coverslips were examined microscopically. Five to ten 100× fields were evaluated by counting the number of cells separated from the wound edges and which appeared to be migrating toward the center of the wound. Results are reported as the average number of cells migrating into the wound/100× field. In some cases data from separate experiments were combined to accommodate inclusion of various treatments in the tables.
(§4) Antibody concentration was 1 μg/ml. MEK1 inhibitor, PD98059 (PD98), 50 μM. PI3K inhibitor, Wortmannin, 5 nM. […] Values for antibody and inhibitor treatments were from separate experiments which included all relevant controls. […] UT denotes untreated controls. *P<0.01 (ANOVA) compared to UT; † P<0.02 (ANOVA) compared to PlGF only. ‡ P<0.001 (ANOVA) compared to PlGF only.

MDA-MB-231 = test: Wound-healing (motility) assay, MDA-MB-231; type: cell-based, human; settings: for Relative activity: unit assumed; for Migrating cells: 18-24 h
Experimental: as §2, §3, §4

PlGF = biological target: T2, PlGF (Homo sapiens, UniProt P49763); test: Free peptide binding ELISA (FLAG epitope probe), PlGF-coated wells; settings: peptide with C-terminal FLAG epitope
T2 construct: purchased R&D Systems
T2 sequence (P49763 19-170 isoform P49763-3 limits assumed): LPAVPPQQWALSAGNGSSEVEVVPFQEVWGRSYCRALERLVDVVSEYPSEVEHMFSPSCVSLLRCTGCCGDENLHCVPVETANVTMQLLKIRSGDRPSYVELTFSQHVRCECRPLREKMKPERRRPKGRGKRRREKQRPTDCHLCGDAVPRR
Experimental: as §1

MDA-MB-468 [3] = test: Matrigel cell invasion assay, MDA-MB-468; type: cell-based, human; settings: 48 h
Experimental: (§5) Cellular invasion was determined by addition of 5×10^4cells to growth factor-reduced Matrigel invasion chambers (BD Biosciences Discovery Labware, Bedford, Mass.) (Taylor et al., 2003b; Passaniti et al., 1992, Lab Invest 67, 519-528). Additives to the Matrigel® plugs were pre-incubated together in a total volume of 100 μl PBS at RT for 10 min, after which each additive was added to the Matrigel. Growth factors (2.0 or 0.2 nM), peptide (2 μg/ml), or antibody (1 μg/ml) were added to cells in low serum (0.1% fetal bovine serum [FBS]) medium. Baseline and chemoattractant-based invasion (10% FBS) were included. The number of invading cells was determined by counting the number of cells on the bottom of the invasion chamber membrane after staining at 100× magnification after 24 h (MDA-MB-231) or 48 h (MCF-7, MDA-MB-468). The results of three to five separate experiments are presented.

[4] = test system: PlGF-mediated angiogenesis in corneal tissues; test: Mouse corneal micropocket angiogenesis assay; type: in vivo, C57B16/J mice; settings: micropellets, 100 ng PlGF with 1 μM peptide, day 5
Experimental: The ability of PlGF ligands to block PlGF-mediated angiogenesis in corneal tissues in vivo is investigated. Corneal micropockets are created using a modified von Graefe cataract knife in both eyes of male 5-6-wk-old C57B16/J mice. Micropellets comprised of a sustained release formulation of polyglucuronic acid/polylactic acid containing 100 ng of PlGF or PlGF with 1 μM BP-1, BP-2, BP-3 or BP-4 are implanted into each corneal pocket. Eyes are examined by a slit-lamp biomicroscope on day 5 after pellet implantation. Vessel length and neovascularization are measured.

MDA-MB-231 mfp tumor = test: Orthotopic mammary fat pad (mfp) MDA-MB-231 model; type: in vivo, SCID mice
From the text: MDA-MB-231, grown in tissue culture, was also implanted in the mammary fat pad (mfp) of SCID mice (3×10^6 cells, 4-5 mice/group). In this model, large pulmonary metastases are less likely to develop (Richert et al., Breast Cancer Res. 7:R819-27, 2005). Peptide treatment was commenced on day 5 after implantation, when small tumors were palpable in all mice (8 treatments). Three days after the final peptide treatment, tumors were removed and weighed. Lungs were harvested and examined microscopically for metastases, as described above.

MCF-7 = test: Matrigel cell invasion assay, MCF-7; type: cell-based, human; settings: 48 h
Experimental: as §5

[5] = test system: microvessels in PlGF-containing Matrigel plugs; test: Matrigel basement membrane plug angiogenesis assay; type: in vivo, nude mice; settings: PlGF-containing implants ± BP1, s.c.; PBS controls 16.2±11.4
From the text: To further investigate the effect of PlGF binding peptides on endothelial cell migration and angiogenesis, Matrigel basement membrane plugs containing PlGF, BP1, BP2, or PBS were implanted s.c. on the flanks of nude mice. The number of interior microvessels in the PBS controls was 16.2±11.4/mm^2. PlGF-only implants contained 28.9±17.2/mm^2 (1.8-fold vs. mock-treated implants), and implants with PlGF and BP1 contained only 12.3±13.0 microvessels/mm^2 (P<0.02).

[6] = PlGF 2 nM ± test agent, relative to PlGF-only value
[7] = VEGF 2 nM ± test agent, relative to VEGF-only value

T1 sequence (P17948 with tags, fused parts or gaps limits assumed): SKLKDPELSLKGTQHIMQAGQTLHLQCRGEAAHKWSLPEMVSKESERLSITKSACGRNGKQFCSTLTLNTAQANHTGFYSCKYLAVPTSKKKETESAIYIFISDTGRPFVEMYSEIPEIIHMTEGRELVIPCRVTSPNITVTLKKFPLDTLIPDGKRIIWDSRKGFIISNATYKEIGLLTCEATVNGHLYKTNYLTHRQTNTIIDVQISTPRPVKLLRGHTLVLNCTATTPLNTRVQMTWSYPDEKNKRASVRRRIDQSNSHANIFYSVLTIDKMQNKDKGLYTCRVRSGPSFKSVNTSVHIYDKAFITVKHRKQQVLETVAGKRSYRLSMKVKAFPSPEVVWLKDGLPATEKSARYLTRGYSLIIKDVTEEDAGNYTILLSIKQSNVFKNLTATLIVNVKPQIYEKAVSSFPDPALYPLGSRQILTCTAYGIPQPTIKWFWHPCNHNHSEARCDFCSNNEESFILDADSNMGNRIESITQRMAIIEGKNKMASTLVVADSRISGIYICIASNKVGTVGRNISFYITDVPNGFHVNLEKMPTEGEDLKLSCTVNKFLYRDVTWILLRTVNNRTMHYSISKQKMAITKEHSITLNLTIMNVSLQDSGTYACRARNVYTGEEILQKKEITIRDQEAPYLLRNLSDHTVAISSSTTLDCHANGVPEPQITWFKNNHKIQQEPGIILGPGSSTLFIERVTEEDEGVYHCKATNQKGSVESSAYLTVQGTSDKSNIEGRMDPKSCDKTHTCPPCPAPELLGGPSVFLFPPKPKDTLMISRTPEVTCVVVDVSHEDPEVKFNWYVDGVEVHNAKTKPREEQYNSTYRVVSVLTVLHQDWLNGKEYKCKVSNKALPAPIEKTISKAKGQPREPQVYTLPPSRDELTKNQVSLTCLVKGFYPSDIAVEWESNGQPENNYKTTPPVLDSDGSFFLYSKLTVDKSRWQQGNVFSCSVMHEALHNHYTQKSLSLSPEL

**Q.** What does the source list for SHRYRLAIQLHASDSSSSCV [BP1]?
**A.** binding to Flt-1, fold over background [1]: 10 fold; inhibition at 1 µM ([1]; 1 μM BP1 followed by 2.5 U/ml heparin, read-out: inhibition of BP1 binding to Flt-1, BP1 added prior to heparin): 13%; binding to immobilized Flt-1 (A490), BP1 only ([1]; 5 μM BP1 only): 0.527±0.025; binding to immobilized Flt-1 (A490), with added free Flt-1 ([1]; 5 μM BP1 with added free Flt-1 (2 nM)): 0.327±0.127; decrease in BP1 binding to Flt-1, heparin added before BP1 ([1]; 2.5 U/ml heparin followed by 1 μM BP1): 64%; effect of PlGF on the binding of BP1 to Flt-1 ([1]; PlGF between 1 and 100 nM): no significant effect; decrease in binding of BP1 to immobilized Flt-1 by free Flt-1 ([1]; free Flt-1 2 nM, 5 μM BP1): 38%; binding to Flt-1 (A490) ([1]; peptide with C-terminal FLAG epitope): 0.886±0.096; Relative activity (MDA-MB-468 [2]; [6]): 97%; Relative activity (MDA-MB-468 [2]; [7]): 113%; Migrating cells (MDA-MB-468 [2]; growth factor PlGF 2 nM ± test agent (Flt-1 2 nM, peptide 2 μM, antibody 1 μg/ml)): 14.3 ± 8.1 cells/100× field; Migrating cells (MDA-MB-468 [2]; growth factor VEGF 2 nM ± test agent): 15.8 ± 9.5 cells/100× field; Relative activity (MDA-MB-231; [6]): 32%; Relative activity (MDA-MB-231; [7]): 132%; effect on PlGF-stimulated motility (in words) (MDA-MB-231; antibody 1 μg/ml, peptide 2 μM): inhibited; Migrating cells (MDA-MB-231; growth factor PlGF 2 nM ± test agent (Flt-1 2 nM, peptide 2 μM, antibody 1 μg/ml, PD98059 50 μM, Wortmannin 5 nM)): 13.6 ± 6.1† cells/100× field; Migrating cells (MDA-MB-231; growth factor VEGF 2 nM ± test agent (peptide 2 μM, antibody 1 μg/ml)): 14.7 ± 2.1 cells/100× field; binding to PlGF (A490) (PlGF): 0.100±0.058; Average fold-change in the number of cells on the membrane compared to untreated controls (MDA-MB-468 [3]; PlGF 0.2 nM ± peptide 2 μg/ml): 0.6 ± 0.4 fold; Average fold-change in the number of cells on the membrane compared to untreated controls (MDA-MB-468 [3]; peptide 2 μg/ml alone): 1.2 ± 0.3 fold; effect on PlGF mediated angiogenesis in corneal tissues [4]: inhibits; tumor weight (MDA-MB-231 mfp tumor; 8 peptide treatments, mock-treated 0.423±0.089): 0.345 ± 0.095 g; reduction in metastases (MDA-MB-231 mfp tumor; lung micrometastases): 82%; micrometastasis counts per mouse (MDA-MB-231 mfp tumor; lung, mock-treated 3.4±1.9): 0.6±0.5; decrease in tumor weight (MDA-MB-231 mfp tumor; vs mock-treated, did not reach statistical significance): 23%; Average fold-change in the number of cells on the membrane compared to untreated controls (MCF-7; PlGF 0.2 nM ± peptide 2 μg/ml): 0.3 ± 0.0 fold; Average fold-change in the number of cells on the membrane compared to untreated controls (MCF-7; peptide 2 μg/ml alone): 0.7 ± 0.4 fold; interior microvessels [5]: 12.3±13.0 /mm^2
